Measured values from US9676782B2, “Substituted pyrazolo[1,5-a]pyrazines as negative allosteric modulators of metabotropic glutamate receptor 3” (Vanderbilt University, priority 2014, dated 2017).
Read-outs that look alike come from different tables or passages of the source.

What was measured:
rat mGlu3 = rat mGlu3 (Rattus norvegicus (Rat), UniProt P31422); assay: mGlu3 Ca2+ flux assay; type: cell-based; settings: for remaining activity at 30 µM: amplitude of response at 30 μM test compound as % of maximal response to glutamate, read-out: rat mGlu3 Glu max (%); for IC50: read-out: rat mGlu3 IC50
Chain of rat mGlu3 (P31422 23-879): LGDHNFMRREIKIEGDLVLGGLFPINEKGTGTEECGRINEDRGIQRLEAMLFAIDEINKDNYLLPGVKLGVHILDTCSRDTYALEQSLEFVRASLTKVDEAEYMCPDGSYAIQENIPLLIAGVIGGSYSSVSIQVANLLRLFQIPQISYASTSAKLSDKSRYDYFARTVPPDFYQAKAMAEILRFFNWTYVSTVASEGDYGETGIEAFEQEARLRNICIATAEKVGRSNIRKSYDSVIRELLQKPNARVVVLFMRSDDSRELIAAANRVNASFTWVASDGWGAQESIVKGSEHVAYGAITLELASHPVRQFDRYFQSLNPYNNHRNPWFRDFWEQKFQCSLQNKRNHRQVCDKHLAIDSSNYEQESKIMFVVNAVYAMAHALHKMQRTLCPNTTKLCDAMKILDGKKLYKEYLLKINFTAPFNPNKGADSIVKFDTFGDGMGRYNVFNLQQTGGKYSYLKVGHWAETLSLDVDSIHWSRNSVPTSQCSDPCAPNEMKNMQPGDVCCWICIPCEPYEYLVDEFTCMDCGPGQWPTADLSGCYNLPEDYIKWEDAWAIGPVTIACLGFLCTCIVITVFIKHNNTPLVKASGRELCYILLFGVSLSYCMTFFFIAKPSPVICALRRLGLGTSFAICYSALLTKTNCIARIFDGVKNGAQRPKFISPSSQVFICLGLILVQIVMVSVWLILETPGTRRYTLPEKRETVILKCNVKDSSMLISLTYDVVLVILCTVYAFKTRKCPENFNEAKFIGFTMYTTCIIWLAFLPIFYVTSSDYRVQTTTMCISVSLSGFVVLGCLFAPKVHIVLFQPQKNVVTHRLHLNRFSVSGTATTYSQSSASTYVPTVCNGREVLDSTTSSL
How it was run: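 This calcium mobilization assay used rat mGlu3 cells cultured overnight (37° C., 5% CO2) and read on the FDSS7000 after a 10 minute room-temperature incubation in 20 μL assay buffer. Each of 360 readings per well was divided by its initial value (F/F0). Potency came from fitting normalized responses against log concentration with an unconstrained 4 parameter logistic equation, weighting triplicate points equally.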

rat mGlu5 = rat mGlu5 (Rattus norvegicus (Rat), UniProt P31424); assay: mGlu5 Ca2+ flux assay; type: cell-based; settings: for Fold selectivity (mGlu3 vs. mGlu5): ratio of rat mGlu5 EC50 or IC50 to rat mGlu3 IC50; for EC50: read-out: rat mGlu5 EC50 or IC50
Chain of rat mGlu5 (P31424 21-1203): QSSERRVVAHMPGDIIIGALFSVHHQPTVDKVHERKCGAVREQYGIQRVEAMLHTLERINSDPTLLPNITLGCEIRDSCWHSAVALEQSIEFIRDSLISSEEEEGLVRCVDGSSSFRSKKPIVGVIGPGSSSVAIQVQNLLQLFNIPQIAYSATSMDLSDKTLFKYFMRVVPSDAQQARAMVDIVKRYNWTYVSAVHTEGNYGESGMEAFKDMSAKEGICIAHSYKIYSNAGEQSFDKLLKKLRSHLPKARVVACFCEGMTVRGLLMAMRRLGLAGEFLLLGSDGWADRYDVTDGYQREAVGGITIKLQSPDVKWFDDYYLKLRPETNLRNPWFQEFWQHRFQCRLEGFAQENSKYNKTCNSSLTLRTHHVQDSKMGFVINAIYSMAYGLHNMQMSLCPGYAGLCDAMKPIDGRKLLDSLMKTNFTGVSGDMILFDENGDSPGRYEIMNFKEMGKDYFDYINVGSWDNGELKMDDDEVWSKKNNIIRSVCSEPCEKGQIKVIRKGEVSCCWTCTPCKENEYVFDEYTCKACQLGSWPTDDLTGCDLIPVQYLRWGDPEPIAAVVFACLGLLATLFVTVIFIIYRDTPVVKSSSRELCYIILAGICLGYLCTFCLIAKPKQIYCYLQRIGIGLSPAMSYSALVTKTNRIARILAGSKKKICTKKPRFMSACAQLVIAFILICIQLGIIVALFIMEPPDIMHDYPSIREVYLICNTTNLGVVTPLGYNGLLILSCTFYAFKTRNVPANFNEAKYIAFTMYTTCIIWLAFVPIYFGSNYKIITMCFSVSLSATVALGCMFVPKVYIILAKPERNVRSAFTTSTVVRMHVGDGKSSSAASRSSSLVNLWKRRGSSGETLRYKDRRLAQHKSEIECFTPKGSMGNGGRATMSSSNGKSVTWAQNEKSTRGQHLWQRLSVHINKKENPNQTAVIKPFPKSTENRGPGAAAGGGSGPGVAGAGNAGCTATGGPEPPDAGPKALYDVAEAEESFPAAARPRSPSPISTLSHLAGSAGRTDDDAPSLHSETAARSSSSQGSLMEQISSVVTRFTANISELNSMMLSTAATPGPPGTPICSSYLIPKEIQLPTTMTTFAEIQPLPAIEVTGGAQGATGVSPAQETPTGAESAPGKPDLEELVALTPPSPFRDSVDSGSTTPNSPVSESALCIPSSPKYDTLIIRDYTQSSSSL
How it was run: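 Ca2+ flux read kinetically (FDSS7000) after overnight culture at 37° C/5% CO2 and a 5 min room-temperature buffer step following dye removal. Signals expressed per well as F/F0 and normalized to peak glutamate response; EC50 fitted by free 4-parameter logistic, three replicates per concentration equally weighted.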

mGlu1 = assay: mGlu selectivity assay: effect of a single concentration on the glutamate concentration-response curve; type: cell-based; settings: tested at 10 μM
Excerpt: (§1) Selectivity versus other mGlus can also be assessed by evaluating the effect of a single concentration of compound on the glutamate concentration-response curve (CRC) in cell lines expressing the mGlu of interest.

mGlu2 = assay: as above; type: cell-based; settings: tested at 10 μM
Excerpt: as §1

mGlu4 = assay: as above; type: cell-based; settings: tested at 10 μM
Excerpt: as §1

mGlu6 = mGlu6 (Homo sapiens (Human), UniProt O15303); assay: as above; type: cell-based; settings: tested at 10 μM
Chain of mGlu6 (O15303 25-877): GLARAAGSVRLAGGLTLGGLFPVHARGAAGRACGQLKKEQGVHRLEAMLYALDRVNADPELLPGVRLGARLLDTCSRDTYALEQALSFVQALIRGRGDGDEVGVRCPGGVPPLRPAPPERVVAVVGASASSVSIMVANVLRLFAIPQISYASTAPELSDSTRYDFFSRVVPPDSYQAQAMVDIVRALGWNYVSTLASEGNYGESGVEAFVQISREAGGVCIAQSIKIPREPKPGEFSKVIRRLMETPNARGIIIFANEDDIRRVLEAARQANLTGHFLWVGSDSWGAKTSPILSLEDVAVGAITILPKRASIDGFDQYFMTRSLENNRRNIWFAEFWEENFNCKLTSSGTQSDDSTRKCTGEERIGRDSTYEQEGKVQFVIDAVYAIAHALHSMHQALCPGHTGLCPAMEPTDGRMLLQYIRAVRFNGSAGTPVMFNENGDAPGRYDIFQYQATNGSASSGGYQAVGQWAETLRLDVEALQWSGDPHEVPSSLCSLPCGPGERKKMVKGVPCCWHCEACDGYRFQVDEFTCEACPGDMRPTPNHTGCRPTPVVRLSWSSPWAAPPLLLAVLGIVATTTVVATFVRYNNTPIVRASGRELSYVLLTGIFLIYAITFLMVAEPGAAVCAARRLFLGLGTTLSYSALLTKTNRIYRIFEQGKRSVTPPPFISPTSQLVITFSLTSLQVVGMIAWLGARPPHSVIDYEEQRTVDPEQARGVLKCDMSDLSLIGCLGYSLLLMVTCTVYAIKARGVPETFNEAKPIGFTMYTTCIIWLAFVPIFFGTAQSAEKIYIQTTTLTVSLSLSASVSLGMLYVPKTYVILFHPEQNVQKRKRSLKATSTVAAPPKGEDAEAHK
Excerpt: as §1

mGlu7 = assay: as above; type: cell-based; settings: tested at 10 μM
Excerpt: as §1

mGlu8 = assay: as above; type: cell-based; settings: tested at 10 μM
Excerpt: as §1

[1] = system: Aβ-induced neurodegeneration; settings: cited from earlier work
cultured astrocytes = settings: cited from earlier work
schizophrenic patients = settings: compared to placebo, P<0.001 at week 4; cited from earlier work

Row | IC50 (rat mGlu3) [nM] | SMILES | remaining activity at 30 µM (rat mGlu3) [%] | Fold selectivity (mGlu3 vs. mGlu5) (rat mGlu5) | EC50 (rat mGlu5) [nM] | activity against mGlu1 (mGlu1) | activity against mGlu2 (mGlu2) | activity against mGlu4 (mGlu4) | activity against mGlu6 (mGlu6) | activity against mGlu7 (mGlu7) | activity against mGlu8 (mGlu8) | IC50 (rat mGlu3; NAM potency, decrease of glutamate EC80 response, >30,000 = no measurable activity, >10,000 = no plateau) [nM] | effect on Aβ-induced neurodegeneration [1] | sAPPα release (cultured astrocytes) | positive and negative symptoms of schizophrenia (schizophrenic patients)
1 | 890 | N#CCc1ccc(NCc2cc3n(n2)CCN(c2ccc(F)cc2)C3=O)cc1 [Compound 26, 2-(4-(((5-(4-fluorophenyl)-4-oxo-4,5,6,7-tetrahydropyrazolo[1,5-a]pyrazin-2-yl)methyl)amino)phenyl)acetonitrile] | 1.01 | >33 | > 30000 | inactive | inactive | inactive | inactive | inactive | inactive | – | – | – | –
2 | – | COc1ccc(N(C)Cc2cc3n(n2)CCN(c2ccc(F)cc2)C3=O)cc1 [Compound 92, 5-(4-fluorophenyl)-2-(((4-methoxyphenyl)(methyl)amino)methyl)-6,7-dihydropyrazolo[1,5-a]pyrazin-4(5H)-one] | 1.39 | >30 | > 30000 | inactive | inactive | inactive | inactive | inactive | inactive | 986 | – | – | –
3 | – | N[C@@]1(C(=O)O)CO[C@H]2[C@H](C(=O)O)[C@H]21 [LY379268] | – | – | – | – | – | – | – | – | – | – | neuroprotective activity | incremented sAPPα release | –
4 | – | N[C@@]1(C(=O)O)CS(=O)(=O)[C@H]2[C@H](C(=O)O)[C@H]21 [LY404039] | – | – | – | – | – | – | – | – | – | – | – | – | statistically significant improvements in both positive and negative symptoms
